Legend:
human GluR1B receptor [1] = experiment: AMPA-binding assay with membranes of transfected COS-1 cells; details: 10 nM [3H]-AMPA; membrane preparations from human GluR1B receptor-producing COS cells; non-specific binding with 1 mM L-glutamate; FIG. 3
Protocol: (§1) Transfected cells in the frozen state were resuspended in ice-cold distilled water using a hand homogenizer, sonicated for 5 seconds, and then centrifuged for 20 minutes at 50,000 g. The supernatant was discarded and the membrane pellet stored frozen at −70° C.
(§2) COS cell membrane pellets were suspended in ice cold 5 mM Tris-HCI (pH 7.55, 5C) and centrifuged again at 50,000 g for 10 minutes in order to remove endogenous glutamate that would compete for binding. Pellets were resuspended in ice cold 50 mM Tris-HCl (pH 7.55) buffer and the resultant membrane preparation was used as tissue source for binding experiments described below. Proteins were determined using the Pierce Reagent with BSA as standard.
Binding assays were then performed, using an amount of COS-derived membrane equivalent to from 25-100 ug as judged by protein determination and selected radiolabelled ligand. In particular, for AMPA-binding assays, incubation mixtures consisted of 25-100 ug tissue protein and D,L-alpha-[5-methyl-3H]amino-3-hydroxy-5-methylisoxazole-4-propionic acid (3H-AMPA, 27.6Ci/mmole, 10 nM final) with 0.1 M KSCN and 2.5 mM CaCl2 in the 1 ml final volume. Non-specific binding was determined in the presence of 1 mM L-glutamate. […] Pellets were washed twice in 4 ml of the cold incubation buffer, then 5 ml of Beckman Ready-Protein Plus scintillation cocktail was added, for counting.

human GluR1B receptor [2] = experiment: NMDA binding to membranes of transfected COS-1 cells; details: membrane preparations from human GluR1B receptor-producing COS cells
Protocol: as §1, §2

human GluR1B receptor [3] = experiment: kainate-binding assay with membranes of transfected COS-1 cells; details: [vinylidene-3H] kainic acid 5 nM; membrane preparations from human GluR1B receptor-producing COS cells
Protocol: as §1, §2
For kainate-binding assays, incubation mixtures consisted of 25-100 ug tissue protein and [vinylidene-3H] kainic acid (58Ci/mmole, 5 nM final) in the cold incubation buffer, 1 ml final volume. Non-specific binding was determined in the presence of 1 mM L-glutamate. Samples were incubated as for the AMPA-binding assays, and bound and free ligand were separated by rapid filtration using a Brandel cell harvester and GF/B filters pre-soaked in ice-cold 0.3% polyethyleneimine. Filters were washed twice in 6 ml of the cold incubation buffer, then placed in scintillation vials with 5 ml of Beckman Ready-Protein Plus scintillation cocktail for counting.

[3H]Cc1onc(O)c1CC(N)C(=O)O (racemic) [[3H]-AMPA, D,L-alpha-[5-methyl-3H]amino-3-hydroxy-5-methylisoxazole-4-propionic acid]
specific binding (human GluR1B receptor [1]): 100-150 fmole/mg protein

CN[C@H](CC(=O)O)C(=O)O [NMDA, N-methyl-D-aspartate]
binding of NMDA (human GluR1B receptor [2]): little or no demonstrable binding

C=C(C)[C@H]1CN[C@H](C(=O)O)[C@H]1CC(=O)O [kainate, [vinylidene-3H] kainic acid]
binding of kainate (human GluR1B receptor [3]): little or no demonstrable binding

— patent US6406868B1, “AMPA-binding human GluR1 receptors” (priority 1992, dated 2002)
